Measurements from US9181266B2, “2-piperidin-1-yl-acetamide compounds for use as tankyrase inhibitors” (NOVARTIS AG, priority 2011, dated 2015).

Legend:
[1] = system: Wnt ligand-induced signaling in HEK293 cells; assay: Wnt-responsive Super-TOpFlash (STF) luciferase reporter gene assay; format: cell-based; settings: Homo sapiens, Wnt3A condition medium
How it was run: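 HEK293 cells (8000/well, 5% FBS medium) treated with 20% mouse L-cell Wnt3A conditioned medium plus compounds in 10-point serial dilution; luciferase read next day. Inhibition calculated relative to Wnt3A-induced signal without compound and background without Wnt3A CM or compound.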

[2] = system: Non-small lung cancer ABC-1 cells; assay: Cellular proliferation assay (CellTiter-Glo); format: cell-based; settings: Homo sapiens, 72 h; ABC-1 cells, 3 days of compound treatment; read-out: ABC-1 IC50
Method: Cellular Proliferation Assay to Determine Compound Inhibition of Cancer Cell Growth
Viable cells were measured after 3 days of compound treatment using the CellTiter-Glo assay (Promega, G7570). Assay was performed following the manufacture protocol.

PARP2 = PARP2 (Mus musculus (Mouse), UniProt O88554); assay: PARP2 autoparsylation assay (LC/MS detection of nicotinamide); format: biochemical; settings: 20 nM enzyme, 250 μM β-NAD+, 60 min
Chain of PARP2 (O88554 whole entry): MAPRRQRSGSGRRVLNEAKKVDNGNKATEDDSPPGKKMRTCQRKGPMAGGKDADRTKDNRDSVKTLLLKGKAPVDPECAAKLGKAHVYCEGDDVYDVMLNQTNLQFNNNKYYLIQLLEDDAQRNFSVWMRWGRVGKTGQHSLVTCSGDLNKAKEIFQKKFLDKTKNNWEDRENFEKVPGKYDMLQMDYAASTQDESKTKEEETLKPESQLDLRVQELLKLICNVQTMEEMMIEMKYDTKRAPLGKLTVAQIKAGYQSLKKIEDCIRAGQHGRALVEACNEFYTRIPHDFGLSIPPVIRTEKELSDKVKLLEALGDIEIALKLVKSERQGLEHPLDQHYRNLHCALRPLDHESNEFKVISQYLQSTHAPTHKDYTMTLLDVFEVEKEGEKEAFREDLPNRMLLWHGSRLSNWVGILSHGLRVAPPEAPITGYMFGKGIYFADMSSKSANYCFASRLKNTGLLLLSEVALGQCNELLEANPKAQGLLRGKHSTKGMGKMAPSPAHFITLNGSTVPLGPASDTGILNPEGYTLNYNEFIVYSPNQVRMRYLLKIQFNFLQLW
Method: (§1) The autoparsylation activity of the TNKS 1/2 or PARP1/2 enzymes was measured by the liquid chromatography-mass spectrometry (LC/MS) detection of nicotinamide as readout. Compound activity in inhibiting the TNKS and PARP autoparsylation was evaluated by IC50 measurements.

Human PARP1 = Human PARP1 (Homo sapiens (Human), UniProt P09874); assay: PARP1 autoparsylation assay (LC/MS detection of nicotinamide); format: biochemical; settings: 20 nM enzyme, 250 μM β-NAD+, 60 min
Chain of Human PARP1 (P09874 whole entry): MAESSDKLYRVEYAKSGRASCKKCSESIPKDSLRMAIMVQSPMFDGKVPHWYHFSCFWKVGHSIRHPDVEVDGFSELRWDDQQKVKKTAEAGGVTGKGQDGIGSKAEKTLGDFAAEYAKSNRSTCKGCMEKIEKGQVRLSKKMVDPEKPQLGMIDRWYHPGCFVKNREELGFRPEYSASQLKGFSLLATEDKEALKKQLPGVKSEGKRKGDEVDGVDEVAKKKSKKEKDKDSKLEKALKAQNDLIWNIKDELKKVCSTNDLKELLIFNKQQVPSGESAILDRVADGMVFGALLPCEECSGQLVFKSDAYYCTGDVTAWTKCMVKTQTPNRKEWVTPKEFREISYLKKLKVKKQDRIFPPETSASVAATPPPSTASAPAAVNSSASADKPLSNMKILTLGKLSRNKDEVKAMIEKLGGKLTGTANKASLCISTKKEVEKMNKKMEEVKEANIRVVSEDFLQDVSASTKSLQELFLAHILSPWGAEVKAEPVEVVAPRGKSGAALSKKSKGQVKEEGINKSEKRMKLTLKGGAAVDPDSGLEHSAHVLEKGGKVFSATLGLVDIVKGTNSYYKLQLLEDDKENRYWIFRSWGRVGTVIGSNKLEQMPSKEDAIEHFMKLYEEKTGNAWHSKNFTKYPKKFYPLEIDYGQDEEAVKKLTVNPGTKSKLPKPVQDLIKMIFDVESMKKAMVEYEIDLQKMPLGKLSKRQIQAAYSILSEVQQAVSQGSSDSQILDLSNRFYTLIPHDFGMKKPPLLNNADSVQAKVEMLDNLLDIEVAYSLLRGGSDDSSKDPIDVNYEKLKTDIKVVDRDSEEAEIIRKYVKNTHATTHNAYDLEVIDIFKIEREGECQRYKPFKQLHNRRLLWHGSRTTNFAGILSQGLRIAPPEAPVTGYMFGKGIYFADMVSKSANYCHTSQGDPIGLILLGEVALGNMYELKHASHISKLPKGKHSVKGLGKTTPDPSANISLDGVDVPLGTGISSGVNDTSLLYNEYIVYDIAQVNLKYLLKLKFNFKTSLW
Method: as §1

[3] = target: human tankyrase 1 PARP catalytic domain, TNKS1P (Homo sapiens (Human), UniProt O95271); assay: TNKS1 autoparsylation assay (LC/MS detection of nicotinamide); settings: read-out: TNKS1 AP IC50, 20 nM enzyme, 250 μM β-NAD+, 60 min
Chain of human tankyrase 1 PARP catalytic domain, TNKS1P (O95271 1112-1317): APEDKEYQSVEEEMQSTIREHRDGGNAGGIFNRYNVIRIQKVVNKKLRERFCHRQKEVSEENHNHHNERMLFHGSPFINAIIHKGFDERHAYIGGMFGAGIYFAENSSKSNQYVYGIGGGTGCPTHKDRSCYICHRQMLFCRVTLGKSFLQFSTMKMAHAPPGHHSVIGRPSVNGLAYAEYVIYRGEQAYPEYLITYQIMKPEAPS
Method: Biochemical Assay to Determine Compound Inhibition of TNKS Enzyme Activity
The autoparsylation activity of the TNKS 1/2 or PARP1/2 enzymes was measured by the liquid chromatography-mass spectrometry (LC/MS) detection of nicotinamide as readout. Compound activity in inhibiting the TNKS and PARP autoparsylation was evaluated by IC50 measurements. […] For the background control wells, 10 μL of the 5× quenching solution per well was added prior to the addition of β-NAD^+. The % Inhibition was calculated as: (Control−Sample)/(Control−Background)*100.

[4] = target: tankyrase 2 protein PARP domain, TNKS2P (Homo sapiens (Human), UniProt Q9H2K2); assay: TNKS2 autoparsylation assay (LC/MS detection of nicotinamide); settings: read-out: TNKS2 AP IC50, 20 nM enzyme, 250 μM β-NAD+, 60 min
Chain of tankyrase 2 protein PARP domain, TNKS2P (Q9H2K2 959-1164): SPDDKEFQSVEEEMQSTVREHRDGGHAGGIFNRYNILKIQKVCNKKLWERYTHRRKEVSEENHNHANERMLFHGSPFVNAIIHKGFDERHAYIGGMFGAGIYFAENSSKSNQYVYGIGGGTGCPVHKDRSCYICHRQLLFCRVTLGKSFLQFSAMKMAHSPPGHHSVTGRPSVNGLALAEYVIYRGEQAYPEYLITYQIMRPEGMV

[5] = system: Axin2 protein in SW480 cells; assay: Cellular ELISA assay of Axin2 protein stabilization; format: cell-based; settings: Homo sapiens, 24 hrs, read-out: Axin AC50
How it was run: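 SW480 colorectal cells seeded overnight, treated with compound, then lysed. Axin2 in lysates measured by sandwich ELISA: anti-Axin2 capture antibody coated at 1 μg/ml (pH 9.2), lysate 2 h at room temperature, biotinylated anti-Axin2 detection 2 h, then streptavidin-HRP 30 min.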

| Structure (SMILES) | IC50 [1] [nM] | IC50 [2] [nM] | IC50 (PARP2) [nM] | IC50 (Human PARP1) [nM] | IC50 [3] [nM] | IC50 [4] [nM] | AC50 [5] [nM] |
| --- | --- | --- | --- | --- | --- | --- | --- |
| C[C@@H](C1CC1)N(Cc1nc2c(c(=O)[nH]1)COCC2)C(=O)CN1CCC(C(=O)c2ccc(F)cc2)CC1 [Example 42, (S)—N-(1-Cyclopropylethyl)-2-(4-(4-fluorobenzoyl)piperidin-1-yl)-N-((4-oxo-4,5,7,8-tetrahydro-3H-pyrano[4,3-d]pyrimidin-2-yl)methyl)acetamide] | 45.7 ± 4.9 | 290 | > 19000 | > 19000 | 42 ± 3 | 10 ± 1 | 589 ± 60 |
| CCCOc1ccc(C(=O)C2CCN(CC(=O)NCc3nc4c(c(=O)[nH]3)COCC4)CC2)cc1 [Example 84, N-(4-Oxo-3,5,7,8-tetrahydro-4H-pyrano[4,3-d]pyrimidin-2-ylmethyl)2-[4-(4-propoxy-benzoyl)-piperidin-1-yl]acetamide] | 11 ± 3 | 301 | 2130 ± 440 | 4800 ± 250 | 23 ± 5 | 13 ± 2 | 162 ± 19 |
| O=C(CN1CCC(C(=O)c2ccc3c(c2)CCO3)CC1)NCc1nc2c(c(=O)[nH]1)COCC2 [Example 91, 2-[4-(2,3-Dihydro-benzofuran-5-carbonyl)-piperidin-1-yl]-N-(4-oxo-3,5,7,8-tetrahydro-4H-pyrano[4,3-c]pyrimidin-2-ylmethyl)-acetamide] | 10 ± 7 | 116 | 4530 ± 70 | 16700 ± 400 | 40 ± 10 | 20 | 53 ± 25 |
| C[C@H](C1CC1)N(Cc1nc2c(c(=O)[nH]1)COCC2)C(=O)CN1CCC(C(=O)c2ccc(F)cc2)CC1 [Example 41, (R)—N-(1-Cyclopropylethyl)-2-(4-(4-fluorobenzoyl)piperidin-1-yl)-N-((4-oxo-4,5,7,8-tetrahydro-3H-pyrano[4,3-d]pyrimidin-2-yl)methyl)acetamide] | 32 ± 1.4 | 476 | > 19000 | > 19000 | 16 ± 1 | 32 ± 1 | 720 ± 150 |
| COc1ccc(C(=O)C2CCN(CC(=O)NCc3nc4c(c(=O)[nH]3)COCC4)CC2)cc1C [Example 93, 2-[4-(4-Methoxy-3-methyl-benzoyl)-piperidin-1-yl]-N-(4-oxo-3,5,7,8-tetrahydro-4H-pyrano[4,3-d]pyrimidin-2-ylmethyl)-acetamide] | 52 ± 12 | 2010 | 4260 ± 210 | 17100 ± 800 | 33 ± 14 | 12 | 1160 ± 150 |
| O=C(CN1CCC(C(=O)c2ccc(OCC3CC3)cc2)CC1)NCc1nc2c(c(=O)[nH]1)COCC2 [Example 85, 2-[4-(4-Cyclopropylmethoxy-benzoyl)-piperidin-1-yl]-N-(4-oxo-3,5,7,8-tetrahydro-4H-pyrano[4,3-d]pyrimidin-2-ylmethyl)-acetamide] | 5.2 ± 0.1 | 34 | 1970 ± 260 | 4500 ± 580 | 23 ± 2 | 10 ± 2 | 15 ± 2 |
| O=C(CN1CCC(C(=O)c2ccc(OCC3CCC3)cc2)CC1)NCc1nc2c(c(=O)[nH]1)COCC2 [Example 86, 2-[4-(4-Cyclobutylmethoxy-benzoyl)-piperidin-1-yl]-N-(4-oxo-3,5,7,8-tetrahydro-4H-pyrano[4,3-d]pyrimidin-2-ylmethyl)-acetamide] | 820 ± 410 | 41 | 885 ± 37 | 2050 ± 370 | 30 ± 3 | 12 ± 1 | 29 ± 8 |
| COCCN(Cc1nc2c(c(=O)[nH]1)COCC2)C(=O)CN1CCC(C(=O)c2ccc(OC)cc2)CC1 [Example 54, 2-[4-(4-Methoxy-benzoyl)-piperidin-1-yl]-N-(2-methoxy-ethyl)-N-(4-oxo-3,5,7,8-tetrahydro-4H-pyrano[4,3-d]pyrimidin-2-ylmethyl)-acetamide] | 91 ± 13 | 1840 | > 19000 | > 19000 | 35 ± 6 | 14 ± 3 | 1200 ± 100 |
| O=C(c1ccc(F)cc1)C1CCN(CC(=O)N(Cc2nc3c(c(=O)[nH]2)COCC3)Cc2nc3ccccc3s2)CC1 [Example 17, N-(Benzo[d]thiazol-2-ylmethyl)-2-(4-(4-fluorobenzoyl)piperidin-1-yl)-N-((4-oxo-4,5,7,8-tetrahydro-3H-pyrano[4,3-d]pyrimidin-2-yl)methyl)acetamide] | 49 ± 37 | 420 | > 19000 | > 19000 | 73 ± 3 | 18 ± 1 | 125 ± 18 |
| CC(C)Oc1ccc(C(=O)C2CCN(CC(=O)NCc3nc4c(c(=O)[nH]3)COCC4)CC2)cc1 [Example 3, 2-[4-(4-Isopropoxy-benzoyl)-piperidin-1-yl]-N-(4-oxo-3,5,7,8-tetrahydro-4H-pyrano[4,3-c]pyrimidin-2-ylmethyl)-acetamide] | 23 ± 2 | 105 | 2100 ± 240 | 5630 ± 730 | 35 ± 9 | 14 ± 1 | 62 ± 16 |
| COc1cccc(CN(Cc2nc3c(c(=O)[nH]2)COCC3)C(=O)CN2CCC(C(=O)c3ccc(F)cc3)CC2)c1 [Example 18, 2-(4-(4-Fluorobenzoyl)piperidin-1-yl)-N-(3-methoxybenzyl)-N-((4-oxo-4,5,7,8-tetrahydro-3H-pyrano[4,3-d]pyrimidin-2-yl)methyl)acetamide] | 72 ± 62 | 535 ± 7 | > 19000 | > 19000 | 94 ± 1 | 23 | 493 ± 87 |
| O=C(c1ccc(OC(F)(F)F)cc1)C1CCN(CC(=O)N(Cc2nc3c(c(=O)[nH]2)COCC3)CC(F)F)CC1 [Example 71, N-(2,2-Difluoro-ethyl)-N-(4-oxo-3,5,7,8-tetrahydro-4H-pyrano[4,3-d]pyrimidin-2-ylmethyl)-2-[4-(4-trifluoromethoxy-benzoyl)-piperidin-1-yl]-acetamide] | 17.5 ± 6.6 | 100 | 11760 ± 50 | > 19000 | 43 ± 1 | 15 ± 1 | 58 ± 12 |
| O=C(c1ccc(F)cc1)C1CCN(CC(=O)N(Cc2ccc(F)cc2)Cc2nc3c(c(=O)[nH]2)COCC3)CC1 [Example 15, 2-(4-(4-Fluorobenzoyl)piperidin-1-yl)-N-(4-fluorobenzyl)-N-((4-oxo-4,5,7,8-tetrahydro-3H-pyrano[4,3-d]pyrimidin-2-yl)methyl)acetamide] | 101 ± 74 | 540 | > 19000 | > 19000 | 138 ± 1 | 32 ± 1 | 804 ± 91 |
| C[C@H](c1ccc(F)cc1)N(Cc1nc2c(c(=O)[nH]1)COCC2)C(=O)CN1CCC(C(=O)c2ccc(F)cc2)CC1 [Example 36, (R)-2-(4-(4-Fluorobenzoyl)piperidin-1-yl)-N-(1-(4-fluorophenyl)ethyl)-N-((4-oxo-4,5,7,8-tetrahydro-3H-pyrano[4,3-d]pyrimidin-2-yl)methyl)acetamide] | 127 ± 47 | 2630 | > 19000 | > 19000 | 104 ± 28 | 25 ± 7 | 1850 ± 310 |
| O=C(CN1CCC(C(=O)c2ccc(F)cc2)CC1)NCc1nc2c(c(=O)[nH]1)CCCC2 [Example 10, 2-(4-(4-Fluorobenzoyl)piperidin-1-yl)-N-((4-oxo-3,4,5,6,7,8-hexahydroquinazolin-2-yl)methyl)acetamide] | 27 ± 15 | 393 | 700 ± 80 | 2700 ± 800 | 55 ± 3 | 36 ± 2 | 479 ± 24 |
| O=C(CN1CCC(C(=O)c2ccc(OCCC3CC3)cc2)CC1)NCc1nc2c(c(=O)[nH]1)COCC2 [Example 89, 2-{4-[4-(2-Cyclopropyl-ethoxy)-benzoyl]-piperidin-1-yl}-N-(4-oxo-3,5,7,8-tetrahydro-4H-pyrano[4,3-d]pyrimidin-2-ylmethyl)-acetamide] | 17 ± 4 | 87 | 920 ± 340 | 1750 ± 20 | 21 ± 2 | 12 ± 2 | 52 ± 2 |
| O=C(c1ccc(F)cc1)C1CCN(CC(=O)N(Cc2nc3c(c(=O)[nH]2)COCC3)C[C@H]2CCCO2)CC1 [Example 29, (R)-2-(4-(4-Fluorobenzoyl)piperidin-1-yl)-N-((4-oxo-4,5,7,8-tetrahydro-3H-pyrano[4,3-d]pyrimidin-2-yl)methyl)-N-((tetrahydrofuran-2-yl)methyl)acetamide] | 79 ± 80 | 1430 | > 19000 | > 19000 | 148 ± 10 | 38 ± 1 | 990 ± 220 |
